{"source": "patent US8828954B2", "about": "“Use for scopolin and derivatives thereof” (Yonsei University Technology Holdings, Inc., priority 2010, dated 2014)", "key": {"[1]": {"test": "Liver weight and liver tissue lipid levels in high-fat diet fed mice", "format": "in vivo, mouse", "conditions": "SPID group, 10 weeks", "protocol": "(§1) The obesity-inducing control diet used in the present test was high-fat diet (HFD: 40% fat calorie, 17 g lard+3% corn oil/100 g diet). Diets supplemented with scopolin had the same composition as HF, except that each derivative was included at 0.02%. The diabetic drug metformin was added at 0.1% or the hyperlipidemic drug atorvastatin was added at 0.01% to HFD as controls. The normal diet (ND) was prepared according to the AIN-76 rodent diet composition (American Institute of Nutrition, Report of the American Institute of Nutrition ad hoc committee on standards for nutritional studies. J. Nutr., 107: 1340-1348, (1977)) (Table 1).\n(§2) 5-week-old male […] mice (Orient, Korea) were accustomed to the laboratory environment for 1 week while feeding solid feed. Then, they were randomly divided into high-fat diet and test groups and bred for a total of 10 weeks. The diet was given between 10 and 11 a.m. every day together with water. Food intake was measured every day and body weight was measured once a week. In order to avoid transient body weight increase after feed intake, body weight was measured 2 hours after removing the feed.\n(§3) After fasting the test animal for at least 12 hours and anesthetizing with diethyl ether, blood, liver and visceral fat (epididymal fat, perirenal fat, mesenteric fat and retroperitoneal fat) were taken and weighed after washing with 0.1 M PBS (pH 7.4). Blood taken from the abdominal aorta was centrifuged at 1000×g for 15 minutes for the separation of plasma.\nIn addition, lipids were extracted from the liver tissue according to Folch et al.'s method (Folch J, Lees M, Sloane Stanley G H. A simple method for the isolation and purification of total lipides from animal tissues. J Biol. Chem. 1957; 226:497-509). After adding 1 mL of distilled water to 0.25 g of the liver tissue, the liver tissue was homogenized using a Polytron homogenizer (IKA-Werke GmbH & Co., Ultra-Turrax, Staufen, Germany). After adding 5 mL of chloroform:methanol solution (2:1, v/v) to the homogenate and mixing well, the mixture was centrifuged at 1000×g for 10 minutes. After adding 2 mL of chloroform:methanol solution (2:1, v/v) again to the supernatant, the same procedure was repeated to completely separate the lipid components of the liver. After adding 3 mL of chloroform:methanol:0.05% CaCl2 (3:48:47, v/v/v) solution to the remaining pellets and mixing well for 1 minute, followed by centrifugation at 1000×g for 10 minutes, the resulting pellets were completely dried with nitrogen gas. The dried lipids were dissolved in 1 mL of methanol and then analyzed. The commercially available kits (Bio Clinical System, Korea) were used to measure the levels of triglyceride, cholesterol and free fatty acids of the liver tissue."}, "aP2": {"system": "aP2", "test": "RT-PCR of aP2 mRNA in epididymal fat tissue", "format": "in vivo, mouse", "conditions": "SPID vs HFD, relative to GAPDH, FIG. 4", "protocol": "(§4) Accordingly, to identify that scopolin inhibits directly obesity-related gene expressions, the inventors examined whether obesity-related gene is expressed according to scopolin treatment through RNA was isolated from epididymal fat tissues obtained in the example 3 and performed RT-PCR.\n(§5) First, after adding 1 mL of Trizol agent per 0.1 g of epididymal fat tissues, the mixture was homogenized and centrifuged at 12,000×g for 10 min at 4° C. The supernatant was transferred to a new tube and 200 μl of chloroform was added to the tube, followed by vortexing. The same procedure was repeated twice and then the supernatant was transferred to a new tube, followed by addition of isopropanol and the supernatant at 1:1 ratio. The mixture was vigorously shaken 10 times and then incubated for 10 min at room temperature, followed by centrifugation at 12,000×g for 10 min at 4° C. to remove the supernatant. After adding 1 mL of 70% ethanol to the remaining pellet, it was centrifuged at 7,500×g for 5 min at 4° C. After removing the ethanol, the RNA pellet contained in the tube was dried for 5 min at 4° C. and dissolved in nuclease-free water. The RNA concentration of sample was measured at a wavelength of 260 nm and 280 nm using a UV/VIS spectrophotometer (Beckman coulter, DU730) and the integrity of RNA sample was verified by agarose gel electrophoresis. […]"}, "UCP3": {"system": "UCP3", "test": "RT-PCR of UCP3 mRNA in epididymal fat tissue", "format": "in vivo, mouse", "conditions": "HFD-induced decrease, relative to GAPDH, FIG. 5", "protocol": "as §4, §5"}, "[2]": {"test": "Body weight and visceral fat weight in high-fat diet fed mice, 10 weeks", "format": "in vivo, mouse", "conditions": "0.02% scopolin in high-fat diet", "protocol": "as §1, §2, §3"}, "UCP1": {"system": "UCP1", "test": "RT-PCR of UCP1 mRNA in epididymal fat tissue", "format": "in vivo, mouse", "conditions": "HFD-induced decrease, relative to GAPDH, FIG. 5", "protocol": "as §4, §5"}, "C/EBPα": {"system": "C/EBPα", "test": "RT-PCR of C/EBPα mRNA in epididymal fat tissue", "format": "in vivo, mouse", "conditions": "SPID vs HFD, relative to GAPDH, FIG. 4", "protocol": "as §4, §5"}, "[3]": {"test": "Plasma lipid and glucose levels in high-fat diet fed mice", "format": "in vivo, mouse", "conditions": "SPID group, 10 weeks", "protocol": "as §1, §2, §3\n(§6) After 10 weeks of breeding, total cholesterol, HDL-cholesterol, triglyceride and glucose levels in the plasma and lipid levels in the liver tissue were measured as follows: Total cholesterol, HDL-cholesterol, triglyceride, free fatty acid and glucose levels in the plasma were measured twice for each using a commercially available kit (Bio Clinical System). The level of LDL+VLDL in plasma was calculated by subtracting HDL level from the total cholesterol level. The activities of ALT (alanine aminotransferase) and AST (aspartate aminotransferase) used as liver function indicator were measured using a commercially available kit (Bio Clinical System, Korea)."}, "[4]": {"test": "ALT and AST activities (liver function indicators) in high-fat diet fed mice", "format": "in vivo, mouse", "conditions": "SPID group, 10 weeks", "protocol": "as §1, §2, §3, §6"}, "3T3-L1 cells": {"system": "3T3-L1 cells", "test": "Inhibition of adipocyte differentiation in 3T3-L1 cells (Oil Red O staining)", "format": "cell-based, mouse", "conditions": "scopolin 0.1, 1, 10, 50 and 100 μM, 14 days, FIG. 1", "protocol": "Mouse adipocyte cell line (3T3-L1) was used to investigate the effect of scopolin on differentiation and growth of adipocytes. The preadipocytes, 3T3-L1 cells, were seeded on a 12-well plate and cultured to confluency using Dulbecco's modified Eagle's medium (DMEM) containing 1% penicillin-streptomycin, 1% non-essential amino acid and 10% fatal bovine serum (FBS), in a 5% CO2 incubator at 37° C. The 3T3-L1 cells grown to confluency were cultured for 2 days in MDI medium containing 0.5 mM isobutylmethylxanthine, 1 μM dexamethasone and 1 μg/mL insulin to differentiate them into differention adipocytes. Then, the cells were further cultivated in DMEM containing 1 μg/mL insulin to differentiate them into mature adipocytes. The cells were further cultured for 10 more days while replacing DMEM every other day to obtain fully differentiated adipocytes.\nFrom the first day when MDI was added to the 3T3-L1 cells, scopolin was treated at concentrations of 0.1, 1, 10, 50 and 100 μM with 2-day intervals. Scopolin was used after being dissolved in DMSO. Only DMSO was added to the negative control group. […] In order to measure the level of triglyceride contained in the differentiated 3T3-L1 cells, the stained lipid droplets were dissolved in 1 mL of isobutanol and optical density (OD) value was measured at 600 nm."}, "[5]": {"system": "mouse intraperitoneal macrophages", "conditions": "macrophages stimulated with ionophore; J Nat Prod 1996; cited from earlier work"}, "acetylcholine esterase": {"target": "acetylcholine esterase (Homo sapiens, UniProt P22303)", "sequence (P22303 32-614)": "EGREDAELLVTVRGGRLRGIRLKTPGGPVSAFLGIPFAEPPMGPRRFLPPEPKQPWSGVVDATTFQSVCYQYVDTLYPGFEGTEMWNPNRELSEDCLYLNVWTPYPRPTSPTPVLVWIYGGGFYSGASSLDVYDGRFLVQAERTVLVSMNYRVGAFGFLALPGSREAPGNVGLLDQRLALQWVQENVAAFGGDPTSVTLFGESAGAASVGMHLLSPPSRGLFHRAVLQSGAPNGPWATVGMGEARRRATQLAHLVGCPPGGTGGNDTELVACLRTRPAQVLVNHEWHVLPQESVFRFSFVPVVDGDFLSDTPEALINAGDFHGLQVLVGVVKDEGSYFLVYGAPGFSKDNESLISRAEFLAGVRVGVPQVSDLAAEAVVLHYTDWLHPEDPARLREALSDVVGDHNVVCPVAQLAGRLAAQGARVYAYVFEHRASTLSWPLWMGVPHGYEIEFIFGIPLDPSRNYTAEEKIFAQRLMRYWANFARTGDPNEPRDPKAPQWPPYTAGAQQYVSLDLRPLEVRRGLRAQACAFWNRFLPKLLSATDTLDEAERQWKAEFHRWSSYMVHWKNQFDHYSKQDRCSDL", "conditions": "J Med Chem 2004; cited from earlier work"}, "PPARγ2": {"system": "PPARγ2", "test": "RT-PCR of PPARγ2 mRNA in epididymal fat tissue", "format": "in vivo, mouse", "conditions": "SPID vs HFD, relative to GAPDH, FIG. 4", "protocol": "as §4, §5"}}, "note": "Marks after values point to notes of the source that are not given here.", "data": [{"smiles": "COc1cc2ccc(=O)oc2cc1OC1OC(CO)C(O)C(O)C1O", "note": "[scopolin, 7-(beta-D-glucopyranosoyloxy)-6-methoxy-2H-1-benzopyran-2-one]", "values": [{"measurement": "decrease of cholesterol in liver tissue as compared to HFD", "setting": "[1]", "value": 21, "unit": "%"}, {"measurement": "decrease of free fatty acid in liver tissue as compared to HFD", "setting": "[1]", "value": 33, "unit": "%"}, {"measurement": "decrease of triglyceride in liver tissue as compared to HFD", "setting": "[1]", "value": 22, "unit": "%"}, {"measurement": "reduction of absolute weight of liver as compared to HFD", "setting": "[1]", "value": 23, "unit": "%"}, {"measurement": "Liver weight", "setting": "[1]; mean±SEM, n=8", "value": "1.7 ± 0.14^b g"}, {"measurement": "Cholesterol", "setting": "[1]; liver tissue, mean±SEM, n=8", "value": "102.9 ± 5.4^b μmol/g"}, {"measurement": "Free fatty acid", "setting": "[1]; liver tissue, mean±SEM, n=8", "value": "33.6 ± 4.6^b μEq/g"}, {"measurement": "Triglyceride", "setting": "[1]; liver tissue, mean±SEM, n=8", "value": "55.6 ± 5.3^b μmol/g"}, {"measurement": "aP2 mRNA expression level", "setting": "aP2", "value": "significantly reduced expressions"}, {"measurement": "UCP3 mRNA expression level", "setting": "UCP3", "value": "significantly reversed"}, {"measurement": "decrease of cumulative body weight gain as compared to HFD", "setting": "[2]", "value": 22, "unit": "%"}, {"measurement": "decrease of final body weight as compared to HFD", "setting": "[2]", "value": 10, "unit": "%"}, {"measurement": "reduction of epididymal fat-pad weight as compared to HFD", "setting": "[2]", "value": 29, "unit": "%"}, {"measurement": "reduction of mesenteric fat-pad weight as compared to HFD", "setting": "[2]", "value": 28, "unit": "%"}, {"measurement": "reduction of perirenal fat-pad weight as compared to HFD", "setting": "[2]", "value": 33, "unit": "%"}, {"measurement": "reduction of retroperitoneal fat-pad weight as compared to HFD", "setting": "[2]", "value": 31, "unit": "%"}, {"measurement": "reduction of total visceral fat weight as compared to HFD", "setting": "[2]", "value": 30, "unit": "%"}, {"measurement": "UCP1 mRNA expression level", "setting": "UCP1", "value": "significantly reversed"}, {"measurement": "C/EBPα mRNA expression level", "setting": "C/EBPα", "value": "significantly reduced expressions"}, {"measurement": "lower plasma level of LDL+VLDL cholesterol as compared to HFD", "setting": "[3]", "value": 30, "unit": "%"}, {"measurement": "lower plasma level of free fatty acid as compared to HFD", "setting": "[3]", "value": 27, "unit": "%"}, {"measurement": "lower plasma level of total cholesterol as compared to HFD", "setting": "[3]", "value": 23, "unit": "%"}, {"measurement": "lower plasma level of triglyceride as compared to HFD", "setting": "[3]", "value": 28, "unit": "%"}, {"measurement": "reduction of the fasting blood sugar level as compared to HFD", "setting": "[3]", "value": 16, "unit": "%"}, {"measurement": "Free fatty acid", "setting": "[3]; plasma, mean±SEM, n=8", "value": "635 ± 65.6^b μEq/g"}, {"measurement": "Total cholesterol", "setting": "[3]; plasma, mean±SEM, n=8", "value": "5.07 ± 0.26^b mmol/l"}, {"measurement": "Triglyceride", "setting": "[3]; plasma, mean±SEM, n=8", "value": "0.65 ± 0.07^b mmol/l"}, {"measurement": "LDL + VLDL cholesterol", "setting": "[3]; plasma, total cholesterol minus HDL", "value": "3.88 ± 0.27^b mmol/l"}, {"measurement": "Glucose", "setting": "[3]; plasma, fasting, mean±SEM, n=8", "value": "7.51 ± 0.32^b mmol/l"}, {"measurement": "decrease of plasma activity of ALT as compared to HFD", "setting": "[4]", "value": 46, "unit": "%"}, {"measurement": "decrease of plasma activity of AST as compared to HFD", "setting": "[4]", "value": 41, "unit": "%"}, {"measurement": "ALT (alanine aminotransferase)", "setting": "[4]; plasma activity, mean±SEM, n=8", "value": "5.55 ± 0.78^b IU/L"}, {"measurement": "AST (aspartate aminotransferase)", "setting": "[4]; plasma activity, mean±SEM, n=8", "value": "5.80 ± 0.43", "unit": "IU/L"}, {"measurement": "differentiation of the preadipocytes (Oil Red O staining)", "setting": "3T3-L1 cells", "value": "reduced the differentiation of the preadipocytes in a concentration-dependent manner"}, {"measurement": "eicosanoid release", "setting": "[5]", "value": "suppression of eicosanoid release"}, {"measurement": "acetylcholine esterase inhibition", "setting": "acetylcholine esterase", "value": "inhibits acetylcholine esterase"}, {"measurement": "PPARγ2 mRNA expression level", "setting": "PPARγ2", "value": "significantly reduced expressions"}]}]}
